# Results published in patent US6387388B1, “Pesticidal formulation” (Merck & Co., Inc., priority 1995, dated 2002).
# “Also recorded” adds a separate entry of the source.
# Assays:
# [1] = tested on: tomato fruitworm (Helicoverpa zea); assay: Field efficacy study, weekly foliar sprays on tomato; assay type: in vivo
# Description: ‘Roma’ tomato transplants were planted in the field on June 10. Each plot was one row (5 ft centers) by 20 feet (=0.0022957 acre). Plots were separated within rows by at least 6 feet of unplanted ground and across rows by 24 feet. A single row of sweet corn (‘Silver Queen’) was planted mid-way between rows. Weeds are allowed to grow in the ground between the tomato and sweet corn rows, but were kept mowed. Weeds were controlled within tomato rows by a single application of Sencor 75 DF applied as a directed spray at the rate of 0.5 lb a.i./acre on June 20. Foliar applications of Dithane M45 at 1.5 lb a.i./acre were made every 5 days beginning July 1 and continuing through harvest for control of foliar diseases. In addition, calcium nitrate at 4 lb/acre was applied on July 10, 17, 24 and 31 for control of blossom-end rot. All insecticide treatments were applied as foliar sprays on July 23, 30, August 6, and 13. Applications were made using a CO2-powered, backpack sprayer calibrated to deliver 55 gallons of spray per acre at 42 psi. […]
# The experimental treatments were replicated 4 times in a randomized complete block experimental design. The incidence of fruitworm damage to the fruit was determined in each plot on August 11, when the first fruit reached market maturity, and again on August 16. […]
# [2] = soluble in 1 liter of water; cited from earlier work
# eye of a rabbit = assay: Neat emamectin benzoate, acute ocular irritation study in rabbits; assay type: in vivo, albino rabbits (New Zealand white)
# Method: Three male and three female albino rabbits (New Zealand white) 25 to 26 weeks of age and weighing 3.23 to 3.66 kg was used in this study. The test compound was ground into a fine powder and a volume of 0.1 cc (approximately 28 mg) was placed in the conjunctival sac of the left eye of each rabbit. Immediately after administration, the eyelids of the treated eye were held together for one second to prevent loss of material and released. The right eye was used as an untreated control.
# Ocular examinations were made recorded at 1, 24, 48 and 72 hours post-instillation in all rabbits and were scored by the Draize Method (J. Pharmacol. Exp. Therap. 82:377-390 (1944)). Because of severe ocular reactions, three rabbits were euthanized following the 72-hour reading. Scores were recorded for the three remaining rabbits once daily through 14 days post-instillation except on weekends.
compound,measurement,setting,value
CC(C)[C@H](C(=O)O[C@H](C#N)c1cccc(Oc2ccccc2)c1)c1ccc(Cl)cc1 [esfenvalerate],overall mean percentage of damaged fruit,"[1]; tomato, Asana XL 0.66 EC at 0.036 lb active ingredient per acre, applied weekly, untreated control 18.5%",0.0%
COP(=O)(NC(C)=O)SC (stereo not drawn) [acephate],amount soluble in water,[2],650 g
CC1(C)[C@H](C(=O)O[C@H](C#N)c2cccc(Oc3ccccc3)c2)[C@@H]1/C=C(\Cl)C(F)(F)F (racemic) [lambda-cyhalothrin],overall mean percentage of damaged fruit,[1]; foliar,1.0%
benzoate salt of 4″-deoxy-4″-epi-methylamino avermectin B1a/B1b [emamectin benzoate],ocular irritation rating,"eye of a rabbit; 0.1 cc (approximately 28 mg) fine powder in conjunctival sac, six rabbits, listed as neat emamectin benzoate","severely irritating; also recorded: severe, irreversible eye irritant"
same,"ocular reactions in the three rabbits euthanized early, through 72 hours",eye of a rabbit; approximately 28 mg in conjunctival sac,chemosis became severe
same,ocular reactions at one hour,"eye of a rabbit; approximately 28 mg in conjunctival sac, six rabbits, listed as neat emamectin benzoate","the eyes of four rabbits had congestion of the iris; also recorded: corneal anesthesia and conjunctival irritation; also recorded: moderate redness, slight or moderate chemosis and severe colorless discharge"
same,ocular reactions at 24 hours,"eye of a rabbit; approximately 28 mg in conjunctival sac, listed as neat emamectin benzoate","an additional rabbit had congestion of the iris; also recorded: very slight corneal opacity covering less than ¼ of the corneal surface; also recorded: corneal anesthesia was still present, redness was severe, chemosis was never more than moderate"
same,body weight loss,eye of a rabbit; rabbits euthanized early,less than 7%
same,corneal anesthesia lasted through,eye of a rabbit; two of the three remaining rabbits,72 h
